{"source": "patent US10188633B2", "about": "“Identification of small molecules that facilitate therapeutic exon skipping” (The Regents of the University of California, priority 2011, dated 2019)", "key": {"DMD patients": {"test_system": "DMD patients", "conditions": "oral, after 2 years of daily treatment; cited from earlier work"}, "mdx mice [1]": {"test_system": "mdx mice", "assay": "Intramuscular PMOE23 with systemic dantrolene in mdx mice, dystrophin in tibialis anterior", "format": "in vivo, mouse", "method": "One dose of either 10 ug or 2 ug of morpholino M23D in 25 ul PBS was injected into the tibialis anterior (TA) of 6 week old mdx mice on day 1 (n=3 per group). Dantrolene was administered by intraperitoneal injection at either 10 or 20 mg/kg/day for 9 days in a volume of 200 ul every 12 hours. Dantrolene was solubilized in 20% DMSO in normal saline. TA muscle was harvested on Day 11 and immediately frozen in Optimal Cutting Temperature compound (O.C.T.) embedding medium. Serial sections along the TA with intervals 800 microns apart were processed to perform assessments within the TA region with maximal AO delivery. […] (A) For Western blot analysis, half of each of the 4 middle intervals were pooled. Dystrophin protein was detected using MANDYS8 (exons 31 and 32) antibody. Control C57 was loaded at 5 ug/well, and 50 ug/well was loaded for other mdx samples. (B) Western blot was quantified by densitometry and plotted as arbitrary densitometry units normalized to vinculin loading control. […] (D) Data from whole muscle cross sections from C were quantified as total fluorescence, without inclusion of edges with artifactual staining, normalized to surface area scanned. […] Images were analyzed using Ariol SL-50 (Applied Imaging Corp., San Jose, Calif.). […]\nTotal fluorescence was quantitated from TA sections by scanning four entire cross sections from each of the mice for each experimental group."}, "DMD exon 51": {"test_system": "DMD exon 51", "assay": "DMD exon 51 skipping in reprogrammed DMD patient fibroblasts fused to myotubes (GM05017, iDRM05017) with exon 51 AO", "format": "cell-based, human", "description": "(§1) (A) Differentiated primary mouse myotubes were transfected either with 100 nM 2′-O-methyl M23D, which targets exon 23 splice donor region or mock transfected for 24 hours after which the transfection reagent was removed, and myotubes were treated with different concentrations of Dantrolene for 48 hours. Nested RT-PCR was performed on cDNA between exons 20-26, as previously described. The 901 bp band is the full-length mRNA product, the 688 bp mRNA product is a single skip of exon 23, and the 550 bp mRNA product is a double skip of exons 22 and 23. (B) Mouse Dmd exon 23-skipped transcript levels were quantified using a taqman assay with primer-probe sets spanning the splice junction created by an exon 23 skip (22-24 join) relative to primers amplifying the splice junction of exons 22 and 23 (representing the full length mRNA), as previously described. […] Error bars represent standard deviation of qRT-PCR triplicates. (C) Patient derived fibroblasts with exon 45-50 deletion (confirmed by microarray, see FIG. 6) were immortalized with lentiviral hTERT and transduced with inducible lentiviral MyoD [26]. Cells were grown to confluence, induced for MyoD activity, and fused for 10 days in low serum differentiation media. On Day 7, h51AON [5′ […] 3′] (SEQ ID NO:2) (same sequence as Pro051) within human exon 51 was added at concentrations indicated. Twenty-four hours later Dantrolene or vehicle was added. Cells were harvested 2 days later and total RNA isolated. RT-PCR amplified a fragment of cDNA from exons 42-53 which was followed by a nested PCR to generate a fragment spanning exons 43-52. The 540 bp product is the full length DMD mRNA species and the 307 bp product indicates the exon 51 skip isoform. Quantitation was performed using the Agilent Bioanalyzer and represented as the skip/full-length mRNA ratio.\nPatient fibroblasts with a DMD exon 45-50 deletion were immortalized and transduced with a lenti-viral vector expressing inducible MyoD to create iDRMs (inducibly directly reprogrammable myotubes, specifically iDRM05017s). iDRM05017s were induced for MyoD activity and then cultured for 10 days in fusion media. On Day 7, AO was added for twenty-four hours then removed and Piperacetazine, Trifluoperazine Dihydrochloride, Fluphenazine Dihydrochloride or vehicle (Dimethyl sulfoxide; DMSO) were added in fresh media. After two days total RNA was harvested, cDNA reverse transcribed with a DMD specific primer in exon 54, and exon 51 skipping was detected by nested RT-PCR spanning exons 43-52. Quantitation of exon 51 skipping was performed using the Agilent Bioanalyzer and is represented as the proportion of exon 51 skipping. Error bars represent the standard deviation (SD) of 3 independent wells.\nPatient fibroblasts were transduced with HTERT and an inducible MyoD vector [26]. […] Exon 51 skipping activity was assessed in the context of transfecting an exon 51 2′-O-methyl AO with equivalent sequence to Pro051 seven days after fusion. This AO is directed at an exonic splicing enhancer (ESE) sequence within exon 51. The AO was removed prior to addition of dantrolene and cultures were harvested two days later. A nested RT-PCR was performed between DMD exons 43-52 and levels of exon 51 skipping were determined by quantitating capillary electrophoresis separated fragments representing skipped and unskipped DMD mRNA."}, "[2]": {"test_system": "human DMD exon 50 GFP based reporter", "assay": "Secondary screening, 12 or 16 point titrations on the DMD exon 50 reporter cell line with or without AON6", "format": "cell-based, mouse", "description": "12 or 16 point titrations of compounds were added to the Ex50-GFP and C2C12 myoblasts either with or without AON6.\nA stable clone was generated from C2C12 cells transfected with a human exon 50 DMD GFP reporter (ex50GFP) that has been previously described. Ex50GFP reporter myoblasts were seeded into uncoated 384 well plates and were incubated for 4 hours either with or without 300 nM of 2′-O-methyl phosphorothioate AON6 [5′[…] 3′ (SEQ ID NO:1)] targeting the human exon 50 splice donor site. Cells were transfected with AON6 using the FUGENE (Roche) transfection reagent per manufacturer's instructions. Following AON6 incubation, each component of the BioMol library (n=503) was screened at 10 uM concentration with a final concentration of the DMSO carrier being 1%. Forty-eight hours later fluorescence was measured using the MicroXpress high content imager and analyzed using MetaXpress. Immediately preceding imaging, DNA was stained with Hoescht for 30 min. The BioMol screen without AO (−AO) was performed in 6 replicates, and the with AO (+AO) screen was performed in 3 replicates. For the screen analysis raw fluorescence values were normalized to carrier controls present on each plate by subtracting the values. Negative fluorescence values were set to 0. The data from each compound were averaged from all replicates. For secondary screening by 12 or 16 point dose response, Ex50GFP myoblasts or C2C12 cells without the reporter were seeded on uncoated 384 well plates. A sub-optimal dose of AON6 targeting DMD exon 50 was added for 4 hours. Following the 4 hour incubation, a compound dilution was added (beginning at 100 uM with 1:1 dilutions) for either 12 or 16 points. After a 48 hour incubation with compounds, DNA was stained with Hoescht, and fluorescence determined using the high content imager and analyzed with MetaXpress."}, "mdx mice [3]": {"test_system": "mdx mice", "conditions": "mouse, in vivo; cited from earlier work"}, "Dmd exon 23": {"test_system": "Dmd exon 23", "assay": "Dmd exon 23 skipping in primary mouse myotubes with 2'-O-methyl AO M23D (RT-PCR, taqman)", "format": "cell-based", "description": "as §1"}, "mdx mice [4]": {"test_system": "mdx mice", "assay": "Systemic (intravenous) PMOE23 with intraperitoneal dantrolene in mdx mice, exon 23 skipping and dystrophin in multiple muscles", "format": "in vivo, mouse", "method": "A systemic dose of 100 mg/kg or sub-optimal 10 mg/kg of morpholino M23D (+07-18) was administered by tail vein injection on Day 1. From Day 2-7 Dantrolene was administered intraperitoneally at a dose of 10 mg/kg/day in two divided doses. On Day 8 multiple muscles were harvested for analysis. (A) DMD exon 23 skipping was assessed as in FIG. 3. Skip/full-length mRNA ratio data were combined for all mice and for all initial muscle groups tested (quadricep, gastrocnemius, tibialis anterior and diaphragm). (B) Dystrophin protein was assessed by Western blot (Mandys8) quantitative densitometry for all muscle groups and individual mice (quadricep, gastrocnemius, tibialis anterior and diaphragm). (C) Quantitative immunohistochemistry is plotted as arbitrary units normalized to surface area for each section for all muscle groups and mice using one whole muscle cross section per animal per muscle. […] (E) Immunostaining of serial sections of treated mdx quadricep detects sarcolemmal localization of dystrophin (MANDYS8), alpha-sarcoglycan (NCL-a-sarc) and beta-dystroglycan (NCL-b-DG). […] Error bars in A-C represent the standard deviation among mice and muscles in each group (n=3 animals or n=12 total observations in saline+dantrolene and 100 mg/kg AO+DMSO; n=4 animals or n=16 observations in 10 mg/kg AO with Dantrolene or DMSO).\nThis enabled us to assess whether dantrolene in combination with systemic morpholino PMOE23 could enhance Dmd exon 23 skipping and induce dystrophin protein expression in multiple skeletal muscles. A single intravenous dose of 100 mg/kg PMOE23 was used as a positive control. A single intravenous dose of 10 mg/kg AO was used as a sub-optimal dose alone or in combination with twice daily dosing of 10 mg/kg/day of dantrolene intraperitoneally for the subsequent 6 days [7, 27] (n=3 in control groups and n=4 in experimental groups; Table 5).\nMultiple skeletal muscles were harvested for analysis on day 7 including the quadriceps, gastrocnemius, tibialis anterior, diaphragm, triceps and heart. Muscles were assessed for: 1) increased amounts of skipped Dmd exon 23 mRNA species 2) Dystrophin protein rescue by Western blot 3) Dystrophin protein expression by quantitative immunostain, 4) appropriate subcellular localization, and 5) restoration of other components of the dystroglycan complex to the sarcolemmal membrane. To determine if dantrolene enhanced Dmd exon 23 skipping, the quantitative taqman assay was performed on RNA from each skeletal muscle.\nRNA was isolated from snap frozen skeletal muscle using the QIAGEN RNAeasy Fibrous Tissue Kit."}, "[5]": {"conditions": "10 mg/kg PMOE23 IV with dantrolene 10 mg/kg/day IP"}}, "data": [{"smiles": "O=C1CN(/N=C/c2ccc(-c3ccc([N+](=O)[O-])cc3)o2)C(=O)N1", "note": "[DANTROLENE]", "values": [{"measurement": "creatine kinase levels", "setting": "DMD patients", "value": "slightly reduced"}, {"measurement": "manual muscle test", "setting": "DMD patients", "value": "modest improvement"}, {"measurement": "side effects", "setting": "DMD patients", "value": "without substantial harmful side effects"}, {"measurement": "induced levels of dystrophin (Western blot)", "setting": "mdx mice [1]; dantrolene 10 or 20 mg/kg/day IP with 2 ug PMOE23 IM", "value": "about 20 % of C57 dystrophin levels"}, {"measurement": "dystrophin protein rescue with and without PMOE23", "setting": "mdx mice [1]; dantrolene IP, immunofluorescence and Western blot", "value": "only rescued protein expression in the presence of PMOE23"}, {"measurement": "AO directed DMD exon 51 skipping", "setting": "DMD exon 51; compound added 24 h after AO for two days, nested RT-PCR exons 43-52", "value": "enhance AO directed DMD exon 51 skipping"}, {"measurement": "enhancement of exon 51 skipping versus vehicle control", "setting": "DMD exon 51; with suboptimal dose of exon 51 AO, skip/full-length mRNA ratio, Bioanalyzer", "value": "up to 8 fold"}, {"measurement": "increase in fluorescence in the Ex50-GFP+AO compared to the reporter line without AO", "setting": "[2]; 12 or 16 point titrations from 100 uM, positivity criterion (FIG. 5 legend: >10%)", "value": 10, "unit": "%"}, {"measurement": "dose response in Ex50-GFP reporter", "setting": "[2]; 12 or 16 point titrations with AON6", "value": "evidence of a dose response"}, {"measurement": "CK values", "setting": "mdx mice [3]", "value": "lower CK values"}, {"measurement": "amount of exon 23 skipped product (RT-PCR exons 20-26)", "setting": "Dmd exon 23; 25 and 50 uM dantrolene after 100 nM M23D", "value": "increased the amount of exon 23 skipped product"}, {"measurement": "exon 23 skipping in the absence of AO", "setting": "Dmd exon 23; no AO", "value": "failed to cause exon 23 skipping"}, {"measurement": "increase of Dmd exon 23 skipping (skip/full length mRNA, taqman) versus AO alone", "setting": "Dmd exon 23; with suboptimal 100 nM AO M23D, mouse myotubes", "value": 3, "unit": "fold"}, {"measurement": "Dmd exon 23 mRNA skipping, aggregate analysis of all skeletal muscle groups (excluding heart)", "setting": "mdx mice [4]; [5]", "value": "significantly increased"}, {"measurement": "Dmd exon 23 skipping in the gastrocnemius, TA, diaphragm and quadriceps", "setting": "mdx mice [4]; [5]", "value": "enhanced skipping"}, {"measurement": "Dmd exon 23 skipping in the triceps", "setting": "mdx mice [4]; [5]", "value": "Enhancement was not apparent"}, {"measurement": "Dmd exon 23 skipping in heart muscle", "setting": "mdx mice [4]; any experimental condition", "value": "No appreciable skipping"}, {"measurement": "mean fold increase in dystrophin protein expression, PMOE23 with dantrolene relative to PMOE23 with vehicle", "setting": "mdx mice [4]; pooled Western blot densitometry across quadricep, gastrocnemius, TA and diaphragm", "value": 3.1, "unit": "fold"}]}]}
